Results reported in patent EP1137645B1, “ALPHA-METHYLBENZYL-CONTAINING THIOUREA INHIBITORS OF HERPES VIRUSES CONTAINING A […] GROUP” (Wyeth, priority 1998, dated 2000).
Converted amounts (≈) assume the structure as drawn. Like-named read-outs stand apart in the source and are kept apart here.

Experiments:
VZV strain Ellen = experiment: VZV antiviral (ELISA) assay; assay type: cell-based
Procedure, shortened: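 HFF cells infected with VZV Ellen at multiplicity below 0.1 overnight, then mixed infected/uninfected cells seeded with compound in DMEM/2% FBS and incubated three days at 37°C, 5% CO2.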

HSV- I = experiment: HSV antiviral (ELISA) assay; assay type: cell-based; details: read-out: IC50 (ug/ml) HSV
Procedure, shortened: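 IC50 from fluorescence versus untreated control in a cell ELISA: anti-glycoprotein D antibody, β-galactosidase-conjugated secondary, 4-methyl umbelliferone read at 365/450 nm. Vero cells (2% FBS DMEM) received compound 30 min pre-infection with HSV-1 at MOI 0.006, fixed ~24 h post-infection.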

[1] = system: HCMV recombinant mutant virus whose genome contains the prokaryotic beta-glucuronidase gene; experiment: microbe, parasite or virus in culture; assay type: cell-based, human cytomegalovirus; details: Human betaherpesvirus 5, Fibroblast
Procedure, shortened: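 Antiviral IC50 estimated from reduced reporter activity across compound amounts: lysates prepared 96 h after infection were tested with p-nitrophenyl- or methylumbelliferyl-glucuronide. Cells were human foreskin fibroblasts, infected alongside inhibitor with HCMV (e.g. RV145) expressing viral promoter-driven beta-glucuronidase.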

[2] = Human alphaherpesvirus 3, HFF, read-out: IC50 (ug/ml) VZV, VZV strain Ellen, HFF cells, ELISA
[3] = read-out: IC50 ug/ml HCMV, HCMV, human foreskin fibroblasts
[4] = Human alphaherpesvirus 3, VZV strain Ellen, HFF cells, ELISA, read-out: IC50 (ug/ml) VZV

With `O=C(Nc1ccc(NC(=S)Nc2cc(Br)cc(C(F)(F)F)c2)cc1)c1ccccc1F` [Example 531, N-{4-[3-(3-Bromo-5-trifluoromethyl-phenyl)-thioureido]-phenyl}-2-fluoro-benzamide] the IC50 (VZV strain Ellen; [2]) was 6 µg/mL (≈ 11.7 µM), the IC50 (HSV- I; Vero) was over 10 µg/mL and the IC50 [1, 3] was 5 µg/mL (≈ 9.76 µM).
In the case of `O=C(Nc1ccc(NC(=S)NCc2ccccc2)cc1)c1ccccc1F` [Example 536, N-[4-(3-Benzyl-thioureido)-phenyl]-2-fluoro-benzamide], the IC50 (VZV strain Ellen; [4]) is reported as over 10 µg/mL, the IC50 (HSV- I; HSV- I, Vero cells, ELISA) is reported as over 10 µg/mL and the IC50 ([1]; read-out: IC50 ug/ml HCMV) is reported as over 10 µg/mL.
In the case of `O=C(Nc1ccc(NC(=S)NCc2ccc(Cl)c(Cl)c2)cc1)c1ccccc1F` [Example 538, N-{4-[3-(3,4-Dichloro-benzyl)-thioureido]-phenyl}-2-fluoro-benzamide], the IC50 (VZV strain Ellen; [2]) is reported as 10 µg/mL (≈ 22.3 µM), the IC50 (HSV- I; Vero) is reported as over 10 µg/mL and the IC50 [1, 3] is reported as over 10 µg/mL.
With `O=C(Nc1ccc(NC(=S)NCc2ccc3c(c2)OCO3)cc1)c1ccccc1F` [Example 540, N-[4-(3-Benzo[1,3]dioxol-5-ylmethyl-thioureido)-phenyl]-2-fluoro-benzamide] the IC50 (VZV strain Ellen; [4]) was over 10 µg/mL, the IC50 (HSV- I; HSV- I, Vero cells, ELISA) was over 10 µg/mL and the IC50 ([1]; read-out: IC50 ug/ml HCMV) was over 0.5 µg/mL.
`O=C(Nc1ccc(NC(=S)NCc2cc(C(F)(F)F)cc(C(F)(F)F)c2)cc1)c1ccccc1F` [Example 543, N-{4-[3-(3,5-Bis-trifluoromethyl-benzyl)-thioureido]-phenyl}-2-fluoro-benzamide] was tested, and the IC50 (VZV strain Ellen; [4]) was over 10 µg/mL, the IC50 (HSV- I; HSV- I, Vero cells, ELISA) was over 10 µg/mL and the IC50 ([1]; read-out: IC50 ug/ml HCMV) was 0.3 µg/mL (≈ 0.582 µM).
For `O=C(Nc1ccc(NC(=S)Nc2ccc(OC(F)(F)F)c(Br)c2)cc1)c1ccccc1F` [Example 549, N-{4-[3-(3-Bromo-4-trifluoromethoxy-phenyl)-thioureido]-phenyl}-2-fluoro-benzamide], the IC50 (VZV strain Ellen; [2]) was over 10 µg/mL, the IC50 (HSV- I; Vero) was over 10 µg/mL and the IC50 [1, 3] was over 10 µg/mL.
With `O=C(Nc1ccc(NC(=S)NCCc2cccc(F)c2)cc1)c1ccccc1F` [Example 552, 2-Fluoro-N-(4-{3-[2-(3-fluoro-phenyl)-ethyl]-thioureido}-phenyl)-benzamide] the IC50 (VZV strain Ellen; [4]) was over 10 µg/mL, the IC50 (HSV- I; HSV- I, Vero cells, ELISA) was over 10 µg/mL and the IC50 ([1]; read-out: IC50 ug/ml HCMV) was over 0.5 µg/mL.
Work on `O=C(Nc1ccc(NC(=S)NCCc2ccc(F)cc2)cc1)c1ccccc1F` [Example 553, 2-Fluoro-N-(4-{3-[2-(4-fluoro-phenyl)-ethyl]-thioureido}-phenyl)-benzamide] yielded an IC50 (VZV strain Ellen; [4]) of 7 µg/mL (≈ 17 µM), an IC50 (HSV- I; HSV- I, Vero cells, ELISA) of over 10 µg/mL and an IC50 ([1]; read-out: IC50 ug/ml HCMV) of over 0.5 µg/mL.
With `O=C(Nc1ccc(NC(=S)NCCc2cccc(Cl)c2)cc1)c1ccccc1F` [Example 563, N-(4-{3-[2-(3-Chloro-phenyl)-ethyl]-thioureido}-phenyl)-2-fluoro-benzamide] the IC50 (VZV strain Ellen; [2]) was 9 µg/mL (≈ 21 µM), the IC50 (HSV- I; Vero) was over 10 µg/mL and the IC50 [1, 3] was over 0.5 µg/mL.
In the case of `CC(NC(=S)Nc1ccc(NC(=O)c2ccccc2F)cc1)c1ccccc1` (stereo not drawn) [Example 589, 2-Fluoro-N-{4-[3-(1-phenyl-ethyl)-thioureido]-phenyl}-benzamide], the IC50 (VZV strain Ellen; [4]) is reported as 0.36 µg/mL (≈ 0.915 µM), the IC50 (HSV- I; HSV- I, Vero cells, ELISA) is reported as over 10 µg/mL and the IC50 ([1]; read-out: IC50 ug/ml HCMV) is reported as 7 µg/mL (≈ 17.8 µM).
Molecule `CC(NC(=S)Nc1ccc(NC(=O)c2ccccc2F)cc1)c1ccc(F)cc1` (stereo not drawn) [Example 591, 2-Fluoro-N-(4-{3-[1-(4-fluoro-phenyl)-ethyl]-thioureido}-phenyl)-benzamide] has an IC50 (VZV strain Ellen; [4]) of 1.5 µg/mL (≈ 3.65 µM), an IC50 (HSV- I; HSV- I, Vero cells, ELISA) of over 10 µg/mL and an IC50 ([1]; read-out: IC50 ug/ml HCMV) of 7 µg/mL (≈ 17 µM).
Molecule `CC(C)CN(C)c1cc(NC(=S)Nc2ccc(NC(=O)c3ccccc3F)cc2)cc(C(F)(F)F)c1` [Example 596, 2-Fluoro-N-(4-{3-[3-(isobutyl-methyl-amino)-5-trifluoromethyl-phenyl]-thioureido}-phenyl)-benzamide] has an IC50 (VZV strain Ellen; [2]) of over 10 µg/mL, an IC50 (HSV- I; Vero) of over 10 µg/mL and an IC50 [1, 3] of 2 µg/mL (≈ 3.86 µM).
With `CCCCN(C)c1cc(NC(=S)Nc2ccc(NC(=O)c3ccccc3F)cc2)cc(C(F)(F)F)c1` [Example 598, N-(4-{3-[3-(Butyl-methyl-amino)-5-trifluoromethyl-phenyl]-thioureido}-phenyl)-2-fluoro-benzamide] the IC50 (VZV strain Ellen; [2]) was over 10 µg/mL, the IC50 (HSV- I; Vero) was over 10 µg/mL and the IC50 [1, 3] was over 10 µg/mL.
In the case of `O=C(Nc1ccc(NC(=S)NCCCc2ccccc2)cc1)c1ccccc1F` [Example 628, 2-Fluoro-N-{4-[3-(3-phenyl-propyl)-thioureido]-phenyl}-benzamide], the IC50 (VZV strain Ellen; [2]) is reported as 10 µg/mL (≈ 24.5 µM), the IC50 (HSV- I; Vero) is reported as over 10 µg/mL and the IC50 [1, 3] is reported as over 10 µg/mL.
`CN(C)c1cc(CNC(=S)Nc2ccc(NC(=O)c3ccccc3F)cc2)cc(C(F)(F)F)c1` [Example 636, N-{4-[3-(3-Dimethylamino-5-trifluoromethyl-benzyl)-thioureido]-phenyl}-2-fluoro-benzamide] was tested, and the IC50 (VZV strain Ellen; [2]) was 5 µg/mL (≈ 10.2 µM), the IC50 (HSV- I; Vero) was over 10 µg/mL and the IC50 [1, 3] was over 10 µg/mL.
`COc1cccc(C(=O)Nc2ccc(NC(=S)NC(C)c3ccc(F)cc3)cc2)c1` (stereo not drawn) [Example 753, N-(4-{3-[1-(4-Fluoro-phenyl)-ethyl]-thioureido}-phenyl)-3-methoxybenzamide] gave an IC50 (VZV strain Ellen; [2]) of over 7.5 µg/mL, an IC50 (HSV- I; Vero) of over 10 µg/mL and an IC50 [1, 3] of over 0.5 µg/mL.
For `COc1ccc(C(=O)Nc2ccc(NC(=S)NC(C)c3ccc(F)cc3)cc2)cc1` (stereo not drawn) [Example 754, N-(4-{3-[1-(4-Fluoro-phenyl)-ethyl]-thioureido}-phenyl)-4-methoxy-benzamide], the IC50 (VZV strain Ellen; [2]) was 0.2 µg/mL (≈ 0.472 µM), the IC50 (HSV- I; Vero) was over 10 µg/mL and the IC50 [1, 3] was over 10 µg/mL.
Work on `CC(NC(=S)Nc1ccc(NC(=O)c2ccccc2Cl)cc1)c1ccc(F)cc1` (stereo not drawn) [Example 755, 2-Chloro-N-(4-{3-[1-(4-fluoro-phenyl)-ethyl]-thioureido}-phenyl)-benzamide] yielded an IC50 (VZV strain Ellen; [2]) of 7 µg/mL (≈ 16.4 µM), an IC50 (HSV- I; Vero) of over 10 µg/mL and an IC50 [1, 3] of over 10 µg/mL.
Work on `CC(NC(=S)Nc1ccc(NC(=O)c2ccc(Cl)cc2)cc1)c1ccc(F)cc1` (stereo not drawn) [Example 756, 4-Chloro-N-(4-{3-[1-(4-fluoro-phenyl)-ethyl]-thioureido}-phenyl)-benzamide] yielded an IC50 (VZV strain Ellen; [2]) of 0.3 µg/mL (≈ 0.701 µM), an IC50 (HSV- I; Vero) of over 10 µg/mL and an IC50 [1, 3] of over 10 µg/mL.
`CC(=O)Oc1ccc(C(=O)Nc2ccc(NC(=S)NC(C)c3ccc(F)cc3)cc2)cc1` (stereo not drawn) [Example 757, Acetic acid 4-(4-{3-[1-(4-fluoro-phenyl)-ethyl]-thioureido}-phenylcarbamoyl)-phenyl ester] was tested, and the IC50 (VZV strain Ellen; [2]) was 1.5 µg/mL (≈ 3.32 µM), the IC50 (HSV- I; Vero) was over 10 µg/mL and the IC50 [1, 3] was over 10 µg/mL.
Work on `CC(NC(=S)Nc1ccc(NC(=O)c2ccccc2)cc1)c1ccc(F)cc1` (stereo not drawn) [Example 758, N-(4-{3-[1-(4-Fluoro-phenyl)-ethyl]-thioureido}-phenyl)-benzamide] yielded an IC50 (VZV strain Ellen; [4]) of over 10 µg/mL, an IC50 (HSV- I; HSV- I, Vero cells, ELISA) of over 10 µg/mL and an IC50 ([1]; read-out: IC50 ug/ml HCMV) of over 10 µg/mL.
Work on `CC(NC(=S)Nc1ccc(NC(=O)c2ccc(O)cc2)cc1)c1ccc(F)cc1` (stereo not drawn) [Example 760, N-(4-{3-[1-(4-Fluoro-phenyl)-ethyl]-thioureido}-phenyl)-4-hydroxy-benzamide] yielded an IC50 (VZV strain Ellen; [4]) of over 10 µg/mL, an IC50 (HSV- I; HSV- I, Vero cells, ELISA) of over 10 µg/mL and an IC50 ([1]; read-out: IC50 ug/ml HCMV) of over 10 µg/mL.
In the case of `CC(NC(=S)Nc1ccc(NC(=O)c2cccc(Cl)c2)cc1)c1ccc(F)cc1` (stereo not drawn) [Example 761, 3-Chloro-N-(4-{3-[1-(4-fluoro-phenyl)-ethyl]-thioureido}-phenyl)-benzamide], the IC50 (VZV strain Ellen; [2]) is reported as over 10 µg/mL, the IC50 (HSV- I; Vero) is reported as 10 µg/mL (≈ 23.4 µM) and the IC50 [1, 3] is reported as 1.5 µg/mL (≈ 3.51 µM).
In the case of `CCCCC(NC(=S)Nc1ccc(NC(=O)c2ccccc2F)cc1)c1ccc(F)cc1` (stereo not drawn) [Example 773, 2-Fluoro-N-(4-{3-[1-(4-fluoro-phenyl)-pentyl]-thioureido}-phenyl)-benzamide], the IC50 (VZV strain Ellen; [2]) is reported as over 7.5 µg/mL, the IC50 (HSV- I; Vero) is reported as over 10 µg/mL and the IC50 [1, 3] is reported as 1.2 µg/mL (≈ 2.65 µM).
`O=C(Nc1ccc(NC(=S)NC(Cc2ccccc2)c2ccc(F)cc2)cc1)c1ccccc1F` (stereo not drawn) [Example 774, 2-Fluoro-N-(4-{3-[1-(4-fluoro-phenyl)-2-phenyl-ethyl]-thioureido}-phenyl)-benzamide] gave an IC50 (VZV strain Ellen; [2]) of over 7.5 µg/mL, an IC50 (HSV- I; Vero) of over 10 µg/mL and an IC50 [1, 3] of 0.5 µg/mL (≈ 1.03 µM).
